{
  "source": "patent US9839632B2",
  "about": "“Methods and compositions using 4-amino-2-(2,6-dioxo-piperidine-3-yl)-isoindoline-1,3-dione for treatment and management of central nervous system cancers” (CELGENE CORPORATION, priority 2013, dated 2017)",
  "key": {"[1]": {"assay": "Blood and brain microdialysis (unbound concentrations) in male CD-IGS rats after single p.o. administration", "format": "in vivo, rat", "settings": "for Kp / Tmax: rat", "description": "Microdialysis: A total of 3 male CD-IGS rats were used. Stomach-cannulated CD-IGS rats (male, weight range: 250-300 g) supplied by Charles River Laboratories were used in this study. Following surgery, all animals were housed in BASi Raturn® containment systems with standard bedding material. Rat chow and water were available ad libitum, and all animals were kept in an ambient temperature room under a 6 am to 6 pm 12-hour lighting schedule.\nAnimal surgeries consisted of implanting a CMA/20 14/10PC vascular microdialysis probe (Part #8309571, CMA Microdialysis, North Chelmsford, Mass.) in the jugular vein, according to an IACUC protocol. Each animal was then stereotaxically implanted with an intracerebral guide directed toward the top of the striatum (A/P: 0.7, L/M: −3.0, DN: −3.0; from bregma), according to a rat stereotaxic atlas. Paxinos G. F. K., The mouse brain in stereotaxic coordinates (Academic Press, San Diego, Calif.) (2001). A BASi BR-4 brain microdialysis probe (Part # MD-2204, BASi, West Lafayette, Ind.) was inserted prior to recovery, and the probes were slowly perfused (0.5 μL/min) with either sterile lactated Ringer's (brain) or Dulbecco's phosphate-buffered saline (D-PBS; blood). Animals were allowed to recover for at least 24 hours prior to dosing. On the day of dosing, the blank perfusate was replaced with perfusate containing the probe calibrator, and flow was set to 1.25 μl/min. 4-amino-2-(2,6-dioxo-piperidine-3-yl)-isoindoline-1,3-dione was administered as a single p.o. administration via the stomach cannula, at 50 mg/kg (5 mL/kg) in a 0.5% A carboxymethylcellulose/0.25% Tween® 80 suspension formulation.\nMicrodialysate was collected in a cooling fraction collector, set at 4° C. (Eicom # EFC-82, EFR-82, Eicom, San Diego, Calif.) at intervals of 25 minutes for 10 hours after dosing. To calculate area-under-the-curve (AUC), the corrected concentration of each sample was multiplied by the interval over which the sample was collected; in this case 25 minutes, and divided by 60 minutes per hour. The sum of these values represented the total AUC value over the specified time range. To generate graphs, the concentration at each time point was plotted at the mid-point of each collection interval. Microdialysates were collected at the specified time points and analyzed for 4-amino-2-(2,6-dioxo-piperidine-3-yl)-isoindoline-1,3-dione concentration using a liquid chromatography-tandem mass spectrometry (LC-MS/MS) assay, within 12 hours. Interim storage was at 4° C.\nMass Spectral Analysis: Microdialysate samples were injected directly into the LC-MS/MS system without processing. Chromatographic separation was achieved using a Phenomenex Synergi C18 column (50×4.6 mm, 4 μm) with gradient elution of 0.1% formic acid in water and 0.1% formic acid in acetonitrile. Detection and quantitation were performed using positive electrospray in multiple reaction-monitoring (“MRM”) modes on a Waters Micromass Ultima tandem mass spectrometer. Transition ions monitored were m/z 274.1 to m/z 84.3 for the analyte and m/z 288.0 to m/z 98.0 for the probe calibrator CC-6032. Calibration was performed using weighted (1/x^2) quadratic regression of peak area. Two calibration curves for 4-amino-2-(2,6-dioxo-piperidine-3-yl)-isoindoline-1,3-dione in PBS and lactated ringers solution were constructed using standards at concentrations of 1.28, 2.56, 5.12, 10.2, 25.6, 64.0, 160, 400, 1000, and 2000 ng/mL. A quadratic regression model with a weighting of 1/(x^2) was used for the regression of calibration curves. Concentrations below the limit of quantitation (“BLOQ”) were treated as zero for calculations."}, "[2]": {"system": "primary murine microglia cells", "assay": "Phagocytosis assay, primary murine microglia cells", "format": "cell-based", "settings": "3 or 10 ug/ml, 48 hours, P<0.05 vs control", "procedure": "Phagocytosis assay: The impact of 4-amino-2-(2,6-dioxo-piperidine-3-yl)-isoindoline-1,3-dione on the phagocytic activity of macrophages was assessed in primary microglial cells and human monocyte cells (U937). The cells were cultured in complete medium for 4 days. They were then harvested and resuspended in Opti-MEM medium at 10^6 cells/ml and seeded in a 96 well plate at 100,000 viable cells/well. The experimental wells were treated with 4-amino-2-(2,6-dioxo-piperidine-3-yl)-isoindoline-1,3-dione 3 or 10 ug/ml. After 48 hours of treatment, the culture medium was quickly replaced with 100 ul of pHrodo BioParticles suspension (Life technologies and the cells were incubated in the suspension at 37° C. for 2-3 hours. Following incubation, the plates were scanned at 550 nm/600 nm (excitation/emission) using fluorescence plate reader. The fluorescence activity reflects the phagocytic activity of the macrophages. The impact of 4-amino-2-(2,6-dioxo-piperidine-3-yl)-isoindoline-1,3-dione treatment (% effect) was calculated as a fraction of the phagocytic activity in the positive control wells. Wan, C. P.; et al., J. Immunol. Methods, 1993, 162, pp. 1-7."}, "[3]": {"settings": "microdialysis, male CD-IGS rats, single p.o. 50 mg/kg, n = 3, listed as 4-amino-2-(2,6-dioxo-piperidine-3-yl)-isoindoline-1,3-dione, 50 mg/kg"}, "[4]": {"settings": "microdialysis, male CD-IGS rats, single p.o. 50 mg/kg, n = 3, listed as pomalidomide, 50 mg/kg"}},
  "note": "Read-outs that look alike come from different tables or passages of the source.",
  "data": [
    {"smiles": "Nc1cccc2c1C(=O)N(C1CCC(=O)NC1=O)C2=O", "note": "(stereo not drawn) [Pomalidomide, 4-amino-2-(2,6-dioxo-piperidine-3-yl)-isoindoline-1,3-dione]", "values": [
      {"measurement": "Kp", "setting": "[1]; male, CD-IGS, oral, 50 mg/kg, crossed the blood brain barrier, rats, read-out: CNS penetration", "value": "~0.39"},
      {"measurement": "AUC(0-10), unbound, Brain", "setting": "[1]; [3]", "value": "2700 ± 740", "unit": "ng·h/mL"},
      {"measurement": "Cmax, unbound, Brain", "setting": "[1]; [3]", "value": "430 ± 63", "unit": "ng/mL"},
      {"measurement": "AUC ratio Brain:Blood (unbound)", "setting": "[1]; [4]", "value": "0.39 ± 0.03"},
      {"measurement": "AUC(0-10), unbound, Blood", "setting": "[1]; [4]", "value": "6800 ± 2000", "unit": "ng·h/mL"},
      {"measurement": "AUC(0-10), unbound, Brain", "setting": "[1]; [4]", "value": "2700 ± 740", "unit": "ng·h/mL"},
      {"measurement": "Cmax, unbound, Blood", "setting": "[1]; [4]", "value": "1100 ± 82", "unit": "ng/mL"},
      {"measurement": "Cmax, unbound, Brain", "setting": "[1]; [4]", "value": "430.0 ± 63", "unit": "ng/mL"},
      {"measurement": "Tmax", "setting": "[1]; blood (jugular vein) microdialysate, po, microdialysis, male CD-IGS rats, single p.o. 50 mg/kg, n = 3, read-out: Tmax, unbound, Blood", "value": "4.6 ± 2.4", "unit": "h"},
      {"measurement": "Tmax", "setting": "[1]; brain (striatum) microdialysate, po, microdialysis, male CD-IGS rats, single p.o. 50 mg/kg, n = 3, read-out: Tmax, unbound, Brain", "value": "4.1 ± 1.5", "unit": "h"},
      {"measurement": "Kp", "setting": "[1]; po, microdialysis, male CD-IGS rats, single p.o. 50 mg/kg, n = 3, read-out: AUC ratio Brain:Blood (unbound)", "value": "0.39 ± 0.03"},
      {"measurement": "phagocytic activity", "setting": "[2]", "value": "significantly increased"}
    ]}
  ]
}
